Data reported in patent publication US12441703B2, “Carboxamides as modulators of sodium channels” (VERTEX PHARMACEUTICALS INCORPORATED, priority 2019, dated 2025).

Target: human NaV 1.8 (Homo sapiens, UniProt Q9Y5Y9)
Test: E-VIPR assay for detecting and measuring NaV inhibition properties
Type: cell-based
Settings: E-VIPR assay conducted in the presence of human serum; HEK cells expressing truncated human NaV 1.8; read-out: IC50
Summary of the method: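 HEK cells with truncated human NaV1.8 plus KIR2.1 BacMam, hexyl dye loaded 20 min, compound 30 min at room temperature, 11-point 3-fold series […], 0.625% DMSO, with or without human serum. E-VIPR biphasic stimulation at 10 Hz for 10 s; membrane-potential response read as normalized coumarin/oxonol ratio.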

human NaV 1.8, sequence (Q9Y5Y9 whole entry, looked up): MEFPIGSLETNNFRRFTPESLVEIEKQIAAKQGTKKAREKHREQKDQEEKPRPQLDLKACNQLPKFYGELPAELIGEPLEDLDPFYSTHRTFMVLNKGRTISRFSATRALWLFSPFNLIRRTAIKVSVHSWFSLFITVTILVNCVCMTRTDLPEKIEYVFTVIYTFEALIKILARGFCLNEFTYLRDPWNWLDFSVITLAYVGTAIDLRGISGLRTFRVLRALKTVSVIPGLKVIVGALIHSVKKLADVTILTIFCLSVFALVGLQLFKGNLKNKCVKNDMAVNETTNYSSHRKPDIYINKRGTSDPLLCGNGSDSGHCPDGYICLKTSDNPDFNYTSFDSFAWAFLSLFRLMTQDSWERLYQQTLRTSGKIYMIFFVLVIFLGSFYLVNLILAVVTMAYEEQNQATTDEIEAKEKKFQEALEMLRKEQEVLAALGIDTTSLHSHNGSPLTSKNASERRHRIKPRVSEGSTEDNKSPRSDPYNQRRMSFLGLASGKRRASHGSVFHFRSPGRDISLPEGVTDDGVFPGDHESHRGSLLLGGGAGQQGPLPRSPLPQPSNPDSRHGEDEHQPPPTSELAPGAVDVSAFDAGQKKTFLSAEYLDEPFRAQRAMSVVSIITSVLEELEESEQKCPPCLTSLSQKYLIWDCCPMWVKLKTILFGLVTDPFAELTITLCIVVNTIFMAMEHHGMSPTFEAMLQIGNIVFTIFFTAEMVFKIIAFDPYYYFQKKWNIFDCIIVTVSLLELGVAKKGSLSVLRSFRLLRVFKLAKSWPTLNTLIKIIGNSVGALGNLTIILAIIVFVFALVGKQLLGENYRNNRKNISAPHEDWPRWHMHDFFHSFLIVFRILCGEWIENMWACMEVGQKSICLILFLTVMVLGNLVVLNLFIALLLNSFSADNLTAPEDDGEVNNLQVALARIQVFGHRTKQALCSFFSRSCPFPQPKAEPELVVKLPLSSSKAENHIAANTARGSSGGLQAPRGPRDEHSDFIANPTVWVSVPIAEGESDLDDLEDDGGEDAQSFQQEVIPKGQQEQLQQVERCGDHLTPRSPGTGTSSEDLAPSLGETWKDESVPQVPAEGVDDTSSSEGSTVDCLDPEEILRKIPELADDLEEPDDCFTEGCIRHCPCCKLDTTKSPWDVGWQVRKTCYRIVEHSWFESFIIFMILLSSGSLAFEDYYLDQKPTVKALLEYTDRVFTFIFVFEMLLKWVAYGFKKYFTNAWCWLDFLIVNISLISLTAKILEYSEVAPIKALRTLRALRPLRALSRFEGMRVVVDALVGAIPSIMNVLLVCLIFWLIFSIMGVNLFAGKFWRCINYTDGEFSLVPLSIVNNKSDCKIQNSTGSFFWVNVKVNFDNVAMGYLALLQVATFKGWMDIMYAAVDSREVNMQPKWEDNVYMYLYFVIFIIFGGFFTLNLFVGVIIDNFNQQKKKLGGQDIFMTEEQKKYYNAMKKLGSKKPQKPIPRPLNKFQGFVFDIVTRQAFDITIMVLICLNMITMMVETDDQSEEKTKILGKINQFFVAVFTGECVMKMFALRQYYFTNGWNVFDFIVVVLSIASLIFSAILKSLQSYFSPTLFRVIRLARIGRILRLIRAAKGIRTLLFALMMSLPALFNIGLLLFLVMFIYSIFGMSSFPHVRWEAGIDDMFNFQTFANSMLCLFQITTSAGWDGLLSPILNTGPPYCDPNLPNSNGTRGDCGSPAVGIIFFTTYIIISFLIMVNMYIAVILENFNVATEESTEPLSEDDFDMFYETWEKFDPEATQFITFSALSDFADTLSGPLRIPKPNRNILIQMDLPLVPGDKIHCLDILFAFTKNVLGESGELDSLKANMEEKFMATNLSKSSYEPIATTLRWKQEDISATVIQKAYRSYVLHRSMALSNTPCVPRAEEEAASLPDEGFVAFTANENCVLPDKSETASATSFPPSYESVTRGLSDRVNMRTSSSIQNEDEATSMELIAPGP

SMILES | IC50 [nM]
COc1c(C(F)(F)F)ccc(Oc2cccc(C3CCCCC3)c2)c1C(=O)Nc1ccnc(C(N)=O)c1 [Compound 258, 4-[[6-(3-cyclohexylphenoxy)-2-methoxy-3-(trifluoromethyl)benzoyl]amino]pyridine-2-carboxamide] | > 3000
COc1cc(OC(F)(F)F)ccc1Oc1ccc(F)c(F)c1C(=O)Nc1cc(C(N)=O)ncc1C [Compound 260, 4-[[2,3-difluoro-6-[2-methoxy-4-(trifluoromethoxy)phenoxy]benzoyl]amino]-5-methyl-pyridine-2-carboxamide] | 66
COc1cc(OC(F)(F)F)ccc1Oc1cc(F)c(F)c(F)c1C(=O)Nc1cnc(C(N)=O)nc1 [Compound 262, 5-[[2,3,4-trifluoro-6-[2-methoxy-4-(trifluoromethoxy)phenoxy]benzoyl]amino]pyrimidine-2-carboxamide] | 50
COc1cc(OC(F)(F)F)ccc1Oc1cc(OC)c(Cl)c(C)c1C(=O)Nc1ccnc(C(N)=O)c1 [Compound 265, 4-[[3-chloro-4-methoxy-6-[2-methoxy-4-(trifluoromethoxy)phenoxy]-2-methyl-benzoyl]amino]pyridine-2-carboxamide] | 35
COc1cc(OC(F)(F)F)ccc1Oc1cc(OC)c(Cl)c(F)c1C(=O)Nc1ccnc(C(N)=O)c1 [Compound 266, 4-[[3-chloro-2-fluoro-4-methoxy-6-[2-methoxy-4-(trifluoromethoxy)phenoxy]benzoyl]amino]pyridine-2-carboxamide] | 2.8
COc1cc(OC(F)(F)F)ccc1Oc1cc(Cl)cc(F)c1C(=O)Nc1cc(C(N)=O)[n+]([O-])cc1C [Compound 267, 4-[[4-chloro-2-fluoro-6-[2-methoxy-4-(trifluoromethoxy)phenoxy]benzoyl]amino]-5-methyl-1-oxido-pyridin-1-ium-2-carboxamide] | 84
COc1cc(OC(F)(F)F)ccc1Oc1ccc(Cl)c(F)c1C(=O)Nc1cc(C(N)=O)[n+]([O-])cc1C [Compound 268, 4-[[3-chloro-2-fluoro-6-[2-methoxy-4-(trifluoromethoxy)phenoxy]benzoyl]amino]-5-methyl-1-oxido-pyridin-1-ium-2-carboxamide] | 28
COc1cc(OC(F)(F)F)ccc1Oc1cnc(C(F)(F)F)c(C)c1C(=O)Nc1cnc(C(N)=O)nc1 [Compound 270, 5-[[5-[2-methoxy-4-(trifluoromethoxy)phenoxy]-3-methyl-2-(trifluoromethyl)pyridine-4-carbonyl]amino]pyrimidine-2-carboxamide] | 33
COc1cc(OC(F)(F)F)ccc1Oc1cnc(C(F)(F)F)c(C)c1C(=O)Nc1cc(C(N)=O)ncc1C [Compound 271, N-(2-carbamoyl-5-methyl-4-pyridyl)-5-[2-methoxy-4-(trifluoromethoxy)phenoxy]-3-methyl-2-(trifluoromethyl)pyridine-4-carboxamide] | 24
COc1cc(OC(F)(F)F)ccc1Oc1cc(C(F)(F)F)nc(OC)c1C(=O)Nc1cc(C(N)=O)ncc1C [Compound 272, N-(2-carbamoyl-5-methyl-4-pyridyl)-2-methoxy-4-[2-methoxy-4-(trifluoromethoxy)phenoxy]-6-(trifluoromethyl)pyridine-3-carboxamide] | 89
CNC(=O)c1cc(NC(=O)c2c(Oc3ccc(OC(F)(F)F)cc3OC)cnc(C(F)(F)F)c2OC)ccn1 [Compound 273, 3-methoxy-5-[2-methoxy-4-(trifluoromethoxy)phenoxy]-N-[2-(methylcarbamoyl)-4-pyridyl]-2-(trifluoromethyl)pyridine-4-carboxamide] | 59
COc1cc(OC(F)(F)F)ccc1Oc1cc(C(F)(F)F)c(F)cc1C(=O)Nc1cc[n+]([O-])c(C(N)=O)c1 [Compound 279, 4-[[5-Fluoro-2-[2-Methoxy-4-(Trifluoromethoxy)Phenoxy]-4-(Trifluoromethyl)Benzoyl]Amino]-1-Oxido-Pyridin-1-Ium-2-Carboxamide] | 19
Cc1cnc(C(N)=O)cc1NC(=O)c1c(Oc2ccc(OC(F)(F)F)cc2C)ccc(C(F)(F)F)c1F [Compound 285, 4-[[2-Fluoro-6-[2-Methyl-4-(Trifluoromethoxy)Phenoxy]-3-(Trifluoromethyl)Benzoyl]Amino]-5-Methyl-Pyridine-2-Carboxamide] | 26
Cc1cc(OC(F)(F)F)ccc1Oc1ccc(Cl)c(F)c1C(=O)Nc1ccnc(C(N)=O)c1 [Compound 286, 4-[[3-Chloro-2-Fluoro-6-[2-Methyl-4-(Trifluoromethoxy)Phenoxy]Benzoyl]Amino]Pyridine-2-Carboxamide] | 14
Cc1c(C2CC2)ccc(Oc2ccc(OC(F)(F)F)cc2Cl)c1C(=O)Nc1ccc(C(N)=O)nc1 [Compound 287, 5-[[6-[2-Chloro-4-(Trifluoromethoxy)Phenoxy]-3-Cyclopropyl-2-Methyl-Benzoyl]Amino]Pyridine-2-Carboxamide] | 590
Cc1cnc(C(N)=O)cc1NC(=O)c1c(Oc2ccc(OC(F)(F)F)c(F)c2C)ccc(C(F)(F)F)c1C [Compound 288, 4-[[6-[3-Fluoro-2-Methyl-4-(Trifluoromethoxy)Phenoxy]-2-Methyl-3-(Trifluoromethyl)Benzoyl]Amino]-5-Methyl-Pyridine-2-Carboxamide] | 20.3

Further lines, results first:

IC50 [nM] | SMILES
59 | COc1cc(OC(F)(F)F)ccc1Oc1ccc(F)c(F)c1C(=O)Nc1ccnc(C(N)=O)c1 [Compound 259, 4-[[2,3-difluoro-6-[2-methoxy-4-(trifluoromethoxy)phenoxy]benzoyl]amino]pyridine-2-carboxamide]
8 | COc1cc(OC(F)(F)F)ccc1Oc1ccc(Cl)c(C)c1C(=O)Nc1ccnc(C(N)=O)c1 [Compound 261, 4-[[3-chloro-6-[2-methoxy-4-(trifluoromethoxy)phenoxy]-2-methyl-benzoyl]amino]pyridine-2-carboxamide]
20 | COc1cc(OC(F)(F)F)ccc1Oc1cc(OC)c(F)c(F)c1C(=O)Nc1ccnc(C(N)=O)c1 [Compound 263, 4-[[2,3-difluoro-4-methoxy-6-[2-methoxy-4-(trifluoromethoxy)phenoxy]benzoyl]amino]pyridine-2-carboxamide]
52 | COc1cc(OC(F)(F)F)ccc1Oc1cc(C2CC2)c(F)c(C)c1C(=O)Nc1ccnc(C(N)=O)c1 [Compound 264, 4-[[4-cyclopropyl-3-fluoro-6-[2-methoxy-4-(trifluoromethoxy)phenoxy]-2-methyl-benzoyl]amino]pyridine-2-carboxamide]
37 | COc1cc(OC(F)(F)F)ccc1Oc1ccc(C(F)(F)F)c(C#N)c1C(=O)Nc1ccnc(C(N)=O)c1 [Compound 269, 4-[[2-cyano-6-[2-methoxy-4-(trifluoromethoxy)phenoxy]-3-(trifluoromethyl)benzoyl]amino]pyridine-2-carboxamide]
39.3 | CCc1nc(C(=O)Nc2ccnc(C(N)=O)c2)c(Oc2ccc(OC(F)(F)F)cc2OC)cc1C(F)(F)F [Compound 274, N-(2-carbamoyl-4-pyridyl)-6-ethyl-3-[2-methoxy-4-(trifluoromethoxy)phenoxy]-5-(trifluoromethyl)pyridine-2-carboxamide]
170 | COc1cc(OC(F)(F)F)ccc1Oc1cc(C(F)(F)F)c(OC)nc1C(=O)Nc1ccnc(C(N)=O)c1 [Compound 275, N-(2-Carbamoyl-4-Pyridyl)-6-Methoxy-3-[2-Methoxy-4-(Trifluoromethoxy)Phenoxy]-5-(Trifluoromethyl)Pyridine-2-Carboxamide]
440 | COc1cc(OC(F)(F)F)ccc1Oc1cc(C(F)(F)F)c(OC)cc1C(=O)Nc1ccnc(C(N)=O)c1 [Compound 276, 4-[[5-Methoxy-2-[2-Methoxy-4-(Trifluoromethoxy)Phenoxy]-4-(Trifluoromethyl)Benzoyl]Amino]Pyridine-2-Carboxamide]
170 | COc1cc(OC(F)(F)F)ccc1Oc1cc(C(F)(F)F)cc(OC)c1C(=O)Nc1ccnc(C(N)=O)c1 [Compound 277, 4-[[2-Methoxy-6-[2-Methoxy-4-(Trifluoromethoxy)Phenoxy]-4-(Trifluoromethyl)Benzoyl]Amino]Pyridine-2-Carboxamide]
3.6 | COc1cc(OC(F)(F)F)ccc1Oc1cc(C(F)(F)F)c(C)c(F)c1C(=O)Nc1ccnc(C(N)=O)c1 [Compound 278, 4-[[2-Fluoro-6-[2-Methoxy-4-(Trifluoromethoxy)Phenoxy]-3-Methyl-4-(Trifluoromethyl)Benzoyl]Amino]Pyridine-2-Carboxamide]
4 | COc1cc(OC(F)(F)F)ccc1Oc1ccc(OC(F)(F)F)c(F)c1C(=O)Nc1ccnc(C(N)=O)c1 [Compound 280, 4-[[2-Fluoro-6-[2-Methoxy-4-(Trifluoromethoxy)Phenoxy]-3-(Trifluoromethoxy)Benzoyl]Amino]Pyridine-2-Carboxamide]
130 | COc1cc(OC(F)(F)F)ccc1Oc1ccc(C(F)(F)F)c(C2CC2)c1C(=O)Nc1ccnc(C(N)=O)c1 [Compound 281, 4-[[2-Cyclopropyl-6-[2-Methoxy-4-(Trifluoromethoxy)Phenoxy]-3-(Trifluoromethyl)Benzoyl]Amino]Pyridine-2-Carboxamide]
57 | COc1cc(OC(F)(F)F)ccc1Oc1cc(C2CC2)c(C(F)(F)F)nc1C(=O)Nc1ccnc(C(N)=O)c1 [Compound 282, N-(2-Carbamoyl-4-Pyridyl)-5-Cyclopropyl-3-[2-Methoxy-4-(Trifluoromethoxy)Phenoxy]-6-(Trifluoromethyl)Pyridine-2-Carboxamide]
4.2 | COc1cc(OC(F)(F)F)ccc1Oc1cc(OC)c(C(F)(F)F)c(C)c1C(=O)Nc1ccnc(C(N)=O)c1 [Compound 283, 4-[[4-Methoxy-6-[2-Methoxy-4-(Trifluoromethoxy)Phenoxy]-2-Methyl-3-(Trifluoromethyl)Benzoyl]Amino]Pyridine-2-Carboxamide]
4 | COc1cc(OC(F)(F)F)ccc1Oc1cc(C(F)(F)F)c(OC)c(F)c1C(=O)Nc1ccnc(C(N)=O)c1 [Compound 284, 4-[[2-Fluoro-3-Methoxy-6-[2-Methoxy-4-(Trifluoromethoxy)Phenoxy]-4-(Trifluoromethyl)Benzoyl]Amino]Pyridine-2-Carboxamide]
